The source of these data is publication PMC3482425 (Journal of medicinal chemistry, 2012).

The term IC50 denotes the concentration that inhibits the measured activity by half.

Each structure is given as a SMILES string.

In test [1] the test system is SFRP2 in Calu-6 anaplastic epithelial lung carcinoma cells. The test is described as follows: Re-expression of SFRP2 in Calu-6 cells. The test is classed as cell-based, human. The settings on record: 24 or 48 hours.
Test [2] concerns global H3K4me2 levels in Calu-6 human lung adenocarcinoma cells. As to the kind of experiment: cells. The settings on record: Calu-6, 48 h, read-out: H3K4me2 Fold Increase (48 h), 10 μM, Calu-6 cells.
Test [3] has as its system H3K4me1 levels in Calu-6 human lung adenocarcinoma cell line. The test is described as follows: Global H3K4me1 levels in Calu-6 cells. The class given is cell-based. Particulars: at both 24 and 48 hours.
For test [4], the system named is global H3K4me2 levels in Calu-6 human lung adenocarcinoma cells. The settings on record: time point not stated.
Test [5] has as its system LSD1. Particulars: read-out: IC50 (LSD1 inhibitor); cited from earlier work.
In test [6] the test system is HCAD in Calu-6 anaplastic epithelial lung carcinoma cells. As to the kind of experiment: Re-expression of HCAD in Calu-6 cells. The class given is cell-based, human. The settings on record: 10 μM.

On to `N=C(N)NN` [Aminoguanidine], for which the “effect on SFRP2 levels” value in test [1] (1 mM) was “no effect”.

With `N=C(NCCCNCCCCCCCNCCCNC(=N)NC(=N)NCCC(c1ccccc1)c1ccccc1)NC(=N)NCCC(c1ccccc1)c1ccccc1` [Compound 2d, (bis)-3,3-(diphenyl)propylbiguanide, reference compound], the fold induction at 10 µM in test [2] came to 5.

As to `Cl.N=C(N)SCCCCN1C(=O)c2ccccc2C1=O` [Compound 9], in test [3], the “Increases in H3K4me1 levels” value is on record as “unremarkable”.

As for `Cl.Cl.NCCNc1c([N+](=O)[O-])cc(C(F)(F)F)cc1[N+](=O)[O-]` [Compound 6], the “Increases in H3K4me1 levels” value in test [3] is “unremarkable”. Moreover, the “changes in H3K4 / lysine methylation in the Calu-6 cell line” value in test [4] is reported as “no effect”.

As to `Cl.N=C(N)SCCN1C(=O)c2ccccc2C1=O` [Compound 5, 2-[N-(phthalimido)]ethyl carbamimidothioate hydrochloride], in test [3], the “Increases in H3K4me1 levels” value is “unremarkable”.

As for `N[C@H]1C[C@@H]1c1cccc(OCC[C@H](NC(=O)c2ccccc2)C(=O)NCc2ccccc2)c1` [(1S, 2R)-NCL-1], the IC50 in test [5] is […].

As to `Cl.N=C(N)SCCCN1C(=O)c2ccccc2C1=O` [Compound 8], the “Increases in H3K4me1 levels” value in test [3] is reported as “unremarkable”.

For `CCNCCCCNCCCCNCCCCNCCCCNC/C=C/CNCCCCNCCCCNCCCCNCCCCNCC` [PG11144], the “effect on SFRP2 levels” value in test [1] (5 μM) is “no effect”. Besides, the “fold increase in HCAD expression, 24 hours” value in test [6] came out at 1.47 fold.
